In ChEMBL document CHEMBL5291721, “A preclinical secondary pharmacology resource illuminates target-adverse drug reaction associations of marketed drugs” (Nat Commun, 2023) one finds AC50 data, which are given here for 15 compounds.

The target in assay [1] is T1, Peroxisome proliferator-activated receptor alpha (Homo sapiens, UniProt Q07869).
T1 sequence (Q07869 whole entry): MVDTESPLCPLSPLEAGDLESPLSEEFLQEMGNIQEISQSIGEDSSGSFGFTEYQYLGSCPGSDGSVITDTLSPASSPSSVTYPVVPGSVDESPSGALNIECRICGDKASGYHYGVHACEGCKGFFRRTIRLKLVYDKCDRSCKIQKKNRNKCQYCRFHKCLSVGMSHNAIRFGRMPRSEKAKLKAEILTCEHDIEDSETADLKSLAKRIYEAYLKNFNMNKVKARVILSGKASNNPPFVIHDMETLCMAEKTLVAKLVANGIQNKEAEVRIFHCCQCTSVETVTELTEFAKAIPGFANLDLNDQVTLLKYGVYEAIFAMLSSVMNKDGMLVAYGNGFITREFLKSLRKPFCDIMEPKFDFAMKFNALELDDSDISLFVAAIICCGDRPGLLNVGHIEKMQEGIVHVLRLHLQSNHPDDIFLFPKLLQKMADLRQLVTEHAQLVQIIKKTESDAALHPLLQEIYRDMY
The class given is functional.

For assay [2], the target named is T1, Peroxisome proliferator-activated receptor alpha. The assay is classed as functional. The source holds these as a separate data set.
Another assay deals with T2, Androgen receptor (Rattus norvegicus, UniProt P15207).
T2 sequence (P15207 whole entry): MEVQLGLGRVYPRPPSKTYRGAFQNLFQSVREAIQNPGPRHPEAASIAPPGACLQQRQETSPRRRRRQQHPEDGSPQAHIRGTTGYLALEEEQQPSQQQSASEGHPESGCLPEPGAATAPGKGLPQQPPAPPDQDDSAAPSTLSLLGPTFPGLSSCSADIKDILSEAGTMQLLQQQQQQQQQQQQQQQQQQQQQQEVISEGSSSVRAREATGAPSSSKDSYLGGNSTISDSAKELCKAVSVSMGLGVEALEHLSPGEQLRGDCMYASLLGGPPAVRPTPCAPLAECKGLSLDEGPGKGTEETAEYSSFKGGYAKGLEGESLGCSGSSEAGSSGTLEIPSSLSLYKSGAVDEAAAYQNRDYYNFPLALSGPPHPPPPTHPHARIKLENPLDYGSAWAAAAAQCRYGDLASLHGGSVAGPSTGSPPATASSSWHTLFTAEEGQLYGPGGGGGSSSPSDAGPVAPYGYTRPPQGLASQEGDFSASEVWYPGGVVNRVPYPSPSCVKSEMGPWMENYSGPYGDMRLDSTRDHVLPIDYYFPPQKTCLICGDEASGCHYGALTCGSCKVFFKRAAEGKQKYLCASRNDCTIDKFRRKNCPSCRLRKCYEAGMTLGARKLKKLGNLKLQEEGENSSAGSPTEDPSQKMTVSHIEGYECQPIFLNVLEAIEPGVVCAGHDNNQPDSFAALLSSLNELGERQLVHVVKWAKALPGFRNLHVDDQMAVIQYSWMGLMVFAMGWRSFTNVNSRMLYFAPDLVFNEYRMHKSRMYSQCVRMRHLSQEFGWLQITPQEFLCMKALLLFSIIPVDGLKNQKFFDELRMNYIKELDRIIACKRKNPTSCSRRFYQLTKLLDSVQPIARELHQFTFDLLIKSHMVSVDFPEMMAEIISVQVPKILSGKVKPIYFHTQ
The assay is classed as functional.

In a further assay the target is T3, Substance-K receptor (Homo sapiens, UniProt P21452).
T3 sequence (P21452 whole entry): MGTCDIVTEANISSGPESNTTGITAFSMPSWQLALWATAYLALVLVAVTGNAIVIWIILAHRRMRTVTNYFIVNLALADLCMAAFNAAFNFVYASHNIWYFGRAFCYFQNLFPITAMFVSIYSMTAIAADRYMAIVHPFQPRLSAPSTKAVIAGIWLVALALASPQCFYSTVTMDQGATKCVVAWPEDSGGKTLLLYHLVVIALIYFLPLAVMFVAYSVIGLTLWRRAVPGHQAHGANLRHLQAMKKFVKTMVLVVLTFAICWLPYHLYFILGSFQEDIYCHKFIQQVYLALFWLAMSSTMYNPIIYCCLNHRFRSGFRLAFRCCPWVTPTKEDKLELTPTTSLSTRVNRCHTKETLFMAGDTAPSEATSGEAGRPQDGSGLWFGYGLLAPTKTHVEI

The target in assay [3] is T4, Muscarinic acetylcholine receptor M4 (Homo sapiens, UniProt P08173).
T4 sequence (P08173 whole entry): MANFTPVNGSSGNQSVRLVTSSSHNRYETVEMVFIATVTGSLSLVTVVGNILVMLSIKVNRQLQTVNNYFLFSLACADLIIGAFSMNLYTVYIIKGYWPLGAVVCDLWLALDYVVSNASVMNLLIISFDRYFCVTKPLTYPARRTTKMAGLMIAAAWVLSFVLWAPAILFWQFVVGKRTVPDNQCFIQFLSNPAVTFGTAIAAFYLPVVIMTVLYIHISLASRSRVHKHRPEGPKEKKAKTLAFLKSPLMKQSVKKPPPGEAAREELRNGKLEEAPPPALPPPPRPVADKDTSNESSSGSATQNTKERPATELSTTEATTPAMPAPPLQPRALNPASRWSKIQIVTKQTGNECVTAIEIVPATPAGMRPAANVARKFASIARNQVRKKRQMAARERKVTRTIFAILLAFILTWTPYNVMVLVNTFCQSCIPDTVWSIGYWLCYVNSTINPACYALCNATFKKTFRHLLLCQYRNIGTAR

Assay [4] addresses 5-hydroxytryptamine receptor 2A (Homo sapiens, UniProt P28223).
For assay [5], the target named is T5, Nuclear receptor subfamily 1 group I member 3 (Homo sapiens, UniProt Q14994).
T5 sequence (Q14994 whole entry): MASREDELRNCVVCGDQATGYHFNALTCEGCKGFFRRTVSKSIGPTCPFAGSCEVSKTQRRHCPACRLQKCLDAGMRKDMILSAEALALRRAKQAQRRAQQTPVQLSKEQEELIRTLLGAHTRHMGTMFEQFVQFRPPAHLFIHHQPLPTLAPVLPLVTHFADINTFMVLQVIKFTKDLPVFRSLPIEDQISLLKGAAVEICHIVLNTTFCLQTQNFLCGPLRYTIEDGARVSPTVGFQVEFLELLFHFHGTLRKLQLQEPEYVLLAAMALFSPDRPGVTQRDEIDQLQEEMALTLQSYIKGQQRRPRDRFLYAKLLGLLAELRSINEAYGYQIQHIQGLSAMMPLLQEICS
The assay is classed as functional.

By AC50 is commonly meant the midpoint of the concentration-response curve, whichever way the signal moves. Lower therefore signals activity at low concentration.
Note: assay procedure not described here.

Chain of 5-hydroxytryptamine receptor 2A (P28223 whole entry): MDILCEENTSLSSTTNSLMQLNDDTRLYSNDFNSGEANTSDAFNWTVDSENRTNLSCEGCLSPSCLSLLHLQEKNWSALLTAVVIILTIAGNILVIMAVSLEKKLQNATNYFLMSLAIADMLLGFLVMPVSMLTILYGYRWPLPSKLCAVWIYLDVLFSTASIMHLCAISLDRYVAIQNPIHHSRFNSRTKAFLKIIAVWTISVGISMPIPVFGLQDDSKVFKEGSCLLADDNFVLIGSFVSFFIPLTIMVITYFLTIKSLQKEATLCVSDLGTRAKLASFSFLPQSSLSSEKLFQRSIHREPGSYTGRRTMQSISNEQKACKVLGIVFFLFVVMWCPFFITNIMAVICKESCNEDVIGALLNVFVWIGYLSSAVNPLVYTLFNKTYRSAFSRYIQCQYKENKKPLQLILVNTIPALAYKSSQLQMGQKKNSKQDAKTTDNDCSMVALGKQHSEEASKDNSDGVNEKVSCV

`CC(=O)Nc1ccc(O)cc1` [ACETAMINOPHEN]: the AC50 in assay [1] and in assay [2] was greater than 30 µM each time.

For the compound `C=CCc1ccccc1OCC(O)CNC(C)C` (stereo unspecified) [ALPRENOLOL], the AC50 at Androgen receptor is greater than 30 µM.

Take `NCC(CC(=O)O)c1ccc(Cl)cc1` (stereo unspecified) [BACLOFEN]: the AC50 (on Substance-K receptor; in assay [3]) was greater than 10 µM each time.

As to `Cc1ccc(-c2cc(C(F)(F)F)nn2-c2ccc(S(N)(=O)=O)cc2)cc1` [CELECOXIB], the concentration at half-maximal activity (AC50) (on Substance-K receptor; in assay [3]) was greater than 10 µM in each case.

On to `CN(C)CCC(c1ccc(Cl)cc1)c1ccccn1` (stereo unspecified) [CHLORPHENIRAMINE], for which the AC50 (at Substance-K receptor; in assay [3]) was greater than 10 µM in each case.

Compound `O=C1Nc2ccc(Cl)cc2[C@@](C#CC2CC2)(C(F)(F)F)O1` [EFAVIRENZ] came in with an AC50 in assay [4] of 3.79 µM.

With `CCC1=C(C)CN(C(=O)NCCc2ccc(S(=O)(=O)NC(=O)N[C@H]3CC[C@H](C)CC3)cc2)C1=O` [GLIMEPIRIDE], the AC50 in assay [1] and in assay [2] was greater than 30 µM each time.

With `CCC(C)n1ncn(-c2ccc(N3CCN(c4ccc(OCC5COC(Cn6cncn6)(c6ccc(Cl)cc6Cl)O5)cc4)CC3)cc2)c1=O` (stereo unspecified) [ITRACONAZOLE], the half-maximal activity concentration (AC50) in assay [1], in assay [2] and in assay [5] was greater than 30 µM each time.

With `CN1C(C(=O)Nc2ccccn2)=C(O)c2sc(Cl)cc2S1(=O)=O` [LORNOXICAM], the AC50 in assay [4] was greater than 10 µM; in assay [1], greater than 30 µM; in assay [2], greater than 30 µM; in assay [5], greater than 30 µM.

For the compound `CC[C@H]1[C@@H](O)[C@@H]2[C@H](CC[C@]3(C)[C@@H]([C@H](C)CCC(=O)O)CC[C@@H]23)[C@@]2(C)CC[C@@H](O)C[C@@H]12` [OBETICHOLIC ACID], the AC50 at Androgen receptor is greater than 30 µM.

With `Cc1c(C(=O)NN2CCCCC2)nn(-c2ccc(Cl)cc2Cl)c1-c1ccc(Cl)cc1` [RIMONABANT], the AC50 in assay [4] is greater than 10 µM; at Substance-K receptor, greater than 10 µM; in assay [3], greater than 10 µM; in assay [1], greater than 30 µM; in assay [2], greater than 30 µM; in assay [5], 6.6 µM.

On to `CS(=O)(=O)c1ccc(C2=C(c3ccccc3)C(=O)OC2)cc1` [ROFECOXIB], for which the AC50 (on Substance-K receptor; in assay [3]) was greater than 10 µM in each case.

With `Cn1nnc2c(C(N)=O)ncn2c1=O` [TEMOZOLOMIDE], the AC50 in assay [4] is greater than 10 µM.

`O=C(O[C@H]1C[C@H]2CC[C@@H](C1)[N+]21CCCC1)C(O)(c1ccccc1)c1ccccc1` [TROSPIUM] gave an AC50 on Androgen receptor greater than 30 µM.

As to `N[C@@H]1[C@H]2CN(c3nc4c(cc3F)c(=O)c(C(=O)O)cn4-c3ccc(F)cc3F)C[C@@H]12` [TROVAFLOXACIN], in assay [5], the AC50 was greater than 30 µM.
